# Patent US4130709A, “Pleuromutilin glycoside derivatives” (Eli Lilly and Company, priority 1977, dated 1978)
# Where two headings read alike, the source gives them in different places.
# What was measured:
# swine dysentery = settings: cited from earlier work
# Clostridium perfringens = experiment: microbe, parasite or virus in culture; assay type: cell-based; settings: 24 h
# Actinomyces israelii = experiment: standard agar-dilution test, anaerobic bacteria; assay type: cell-based; settings: 24-hour incubation
# [1] = system: Streptococcus pneumoniae B1492; experiment: in vivo antimicrobial activity, experimental infection in mice, Streptococcus pneumoniae B1492; settings: sc, two doses, infecting challenge 340 × LD50 (ip), read-out: ED50 × 2
# Description: (§1) Typical compounds of the present invention have shown in vivo antimicrobial activity against experimental bacterial infections. When two doses of these compounds were administered to mice in illustrative infections, the activity observed was measured as an ED50 value [effective dose in mg/kg to protect 50% of the test animals; see Warren Wick, et al., J. Bacteriol. 81, 233-235 (1961)].
# [2] = system: Streptococcus pyrogenes C203; experiment: in vivo antimicrobial activity, experimental infection in mice, Streptococcus pyrogenes C203; settings: sc, two doses, read-out: ED50 × 2
# Description: as §1
# [3] = system: Pasteurella multocida (bovine); experiment: in vitro activity against Pasteurella multocida (bovine); assay type: cell-based
# Excerpt: (§2) The activity of representative compounds of this invention (R^2 =H in group tested) against P. multocida and the Pseudomonas sp. is summarized in Table VI.
# Pasteurella hemolytica = experiment: in vitro tests against Pasteurella hemolytica; assay type: cell-based
# Bacteroides corrodens = experiment: standard agar-dilution test, anaerobic bacteria; assay type: cell-based; settings: Eikenella corrodens; Bacteroides corrodens; 24-hour incubation; read-out: MIC
# [4] = system: Staphylococcus aureus (H-Heatley) NRRL B-314; experiment: in vitro turbidometric assay (Autoturb Microbiological Assay System) against Staphylococcus aureus; assay type: cell-based; settings: nutrient broth pH 7, approximately 4 hours at 37° C., A-40104 factor A as standard
# In short: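 S. aureus H-Heatley NRRL B-314 grown in nutrient broth (pH 7), about 4 h at 37° C, with turbidity read on the Autoturb system. Compounds were dissolved in water and diluted to roughly 2.5–5.0 mcg activity/ml. Activity units were set against an A-40104 factor A standard curve (1.25–6.25 mcg/ml).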
# Bacteroides vulgatis = experiment: standard agar-dilution test, anaerobic bacteria; assay type: cell-based; settings: Bacteroides vulgatis; 24-hour incubation; read-out: MIC
# [5] = system: Fusobacterium necrophorum; experiment: standard agar-dilution test, anaerobic bacteria; assay type: cell-based; settings: 24-hour incubation, read-out: MIC
# Spiroplasma citri = experiment: in vitro inhibition of Spiroplasma citri measured by a color reaction; assay type: cell-based; set-up: key to Activity (color reaction): Red (R) includes complete inhibition; red-orange (RO) indicates partial inhibition; yellow (Y) indicates no inhibition
# Description: In another important aspect, the compounds of this invention are active against Spiroplasmas. Spiroplasma citri is the causative agent of citrus-stubborn disease; another Spiroplasma, corn-stunt Spiroplasma, affects the growth of corn. Table VII summarizes the in vitro activity of representative compounds of the present invention (R^2 =H in this group) against Spiroplasma citri. In this test, inhibition of S. citri is measured by a color reaction. Red (R) includes complete inhibition; red-orange (RO) indicates partial inhibition; and yellow (Y) indicates no inhibition.
# Pseudomonas sp. (fish) = experiment: in vitro activity against Pseudomonas sp. (fish); assay type: cell-based
# Excerpt: P. multocida, for example, is a causative agent of respiratory infection in cattle, poultry and swine. P. hemolytica is a major cause of respiratory disease in cattle. The activity of representative compounds of this invention (R^2 =H in group tested) against P. multocida and the Pseudomonas sp. is summarized in Table VI.
# [6] = toxicity (LD50) on intraperitoneal injection in mice; settings: mouse, in vivo, ip
# [7] = system: Peptostreptococcus intermedius; experiment: standard agar-dilution test, anaerobic bacteria; assay type: cell-based; settings: Peptostreptococcus intermedius; 24-hour incubation; read-out: MIC
# [8] = system: Bacteroides fragilis 1877; experiment: standard agar-dilution test, anaerobic bacteria; assay type: cell-based; settings: Bacteroides fragilis 1877; 24-hour incubation; read-out: MIC
# Peptococcus prevoti = experiment: standard agar-dilution test, anaerobic bacteria; assay type: cell-based; settings: Peptococcus prevoti; 24-hour incubation; read-out: MIC
# [9] = system: Bacteroides melaninogenicus 1856/28; experiment: standard agar-dilution test, anaerobic bacteria; assay type: cell-based; settings: Prevotella intermedia; Bacteroides melaninogenicus 1856/28; 24-hour incubation; read-out: MIC
# [10] = system: Staphylococcus aureus 3055; experiment: in vivo antimicrobial activity, experimental infection in mice, Staphylococcus aureus 3055; settings: two doses, read-out: ED50 × 2
# Description: as §1
# Bacteroides fragilis 111 = experiment: standard agar-dilution test, anaerobic bacteria; assay type: cell-based; settings: Bacteroides fragilis 111; 24-hour incubation; read-out: MIC
# [11] = system: Bacteroides melaninogenicus 2736; experiment: standard agar-dilution test, anaerobic bacteria; assay type: cell-based; settings: Bacteroides melaninogenicus 2736; 24-hour incubation; read-out: MIC
# [12] = system: Bacteroides fragilis 1936B; experiment: standard agar-dilution test, anaerobic bacteria; assay type: cell-based; settings: Bacteroides fragilis 1936B; 24-hour incubation; read-out: MIC
# [13] = system: Pasteurella multocida (turkey); experiment: in vitro activity against Pasteurella multocida (turkey); assay type: cell-based
# Excerpt: as §2
# Treponema hyodysenteriae = experiment: in vitro agar plate test against Treponema hyodysenteriae; settings: four days anaerobic
# Eubacterium aerofaciens = experiment: standard agar-dilution test, anaerobic bacteria; assay type: cell-based; settings: Collinsella aerofaciens; Eubacterium aerofaciens; 24-hour incubation; read-out: MIC
# Mycoplasma hyopneumoniae = experiment: in vitro broth-dilution studies, mycoplasma; assay type: cell-based; settings: Mesomycoplasma hyopneumoniae
# Excerpt: (§3) The minimal inhibitory concentrations (MIC's) of a number of typical compounds of the present invention (R^2 =H in group tested) against various mycoplasma species, as determined by in vitro broth-dilution studies, are summarized in Table V.
# Mycoplasma hyorhinis = experiment: in vitro broth-dilution studies, mycoplasma; assay type: cell-based
# Excerpt: as §3
# Mycoplasma gallisepticum = experiment: in vitro broth-dilution studies, mycoplasma; assay type: cell-based; settings: Mycoplasmoides gallisepticum
# Excerpt: as §3
# Mycoplasma synoviae = experiment: in vitro broth-dilution studies, mycoplasma; assay type: cell-based; settings: Mycoplasmopsis synoviae
# Excerpt: as §3
# [14] = system: Bacteroides thetaiotaomicron; experiment: standard agar-dilution test, anaerobic bacteria; assay type: cell-based; settings: 24-hour incubation
# Description: (§4) Table IV summarizes the activity of typical compounds of this invention, as determined by the standard agar-dilution test.
# (§5) *Endpoint read after 24-hour incubation
# Clostridium septicum = experiment: standard agar-dilution test, anaerobic bacteria; assay type: cell-based; settings: 24-hour incubation
# Description: as §4, §5
# [15] = system: Peptostreptococcus anaerobius; experiment: standard agar-dilution test, anaerobic bacteria; assay type: cell-based; settings: 24-hour incubation
# [16] = system: Peptococcus asaccharolyticus; experiment: standard agar-dilution test, anaerobic bacteria; assay type: cell-based; settings: Peptoniphilus asaccharolyticus, 24-hour incubation
# Fusobacterium symbiosum = experiment: standard agar-dilution test, anaerobic bacteria; assay type: cell-based; settings: Fusobacterium symbiosum; 24-hour incubation; read-out: MIC
# [17] = system: Streptococcus pneumoniae Park I; experiment: in vivo antimicrobial activity, experimental infection in mice, Streptococcus pneumoniae Park I; settings: sc, read-out: ED50 × 2
# Description: as §1
# [18] = system: Streptococcus pneumoniae B1343; experiment: in vivo antimicrobial activity, experimental infection in mice, Streptococcus pneumoniae B1343; settings: sc, two doses, infecting challenge 30 × LD50 (ip), read-out: ED50 × 2
# Description: as §1
# [19] = Staphylococcus aureus, 3055, po, oral, infecting challenge 500 × LD50 (ip)
# [20] = Staphylococcus aureus, 3055, po, oral, infecting challenge 3400 × LD50 (ip)
smiles,measurement,setting,value
C=C[C@]1(C)C[C@@H](OC(=O)CO)[C@]2(C)[C@H](C)CC[C@]3(CCC(=O)[C@H]32)[C@@H](C)[C@@H]1O [pleuromutilin],effectiveness in the treatment of swine dysentery (in words),swine dysentery,effective in the treatment of swine dysentery
C=C[C@]1(C)C[C@@H](OC(=O)CS[C@@H]2OC[C@@H](O)[C@H](O)[C@H]2O)[C@]2(C)[C@H](C)CC[C@]3(CCC(=O)[C@H]32)[C@@H](C)[C@@H]1O [Compound 2],MIC,Clostridium perfringens,2 µg/mL
same,MIC,Actinomyces israelii,≤ 0.5 µg/mL
same,ED50,[1],15.3 mg/kg
same,ED50,[2]; infecting challenge 370 × LD50 (ip),11.4 mg/kg
same,MIC,[3],3.12 µg/mL
same,MIC,Pasteurella hemolytica,12.5 µg/mL
same,MIC,Bacteroides corrodens,1 µg/mL
same,Units of Activity,[4],995 to 1003 µg/mg
same,MIC,Bacteroides vulgatis,1 µg/mL
same,MIC,[5],≤ 0.5 µg/mL
same,Activity (color reaction),Spiroplasma citri; 0.01 ppm,"RO,RO"
same,Activity (color reaction),Spiroplasma citri; 0.05 ppm,"--,R"
same,Activity (color reaction),Spiroplasma citri; 0.1 ppm,"R,R"
same,Activity (color reaction),Spiroplasma citri; 1.0 ppm,"R,R"
same,MIC,Pseudomonas sp. (fish),6.25 µg/mL
same,LD50,[6],> 1500 mg/kg
same,MIC,[7],≤ 0.5 µg/mL
same,MIC,[8],1 µg/mL
same,MIC,Peptococcus prevoti,≤ 0.5 µg/mL
same,MIC,[9],> 128 µg/mL
same,ED50,[10]; [19],32.4 mg/kg
same,ED50,[10]; [20],44 mg/kg
same,ED50,"[10]; Staphylococcus aureus, 3055, sc, sc, infecting challenge 82 × LD50 (ip)",1.85 mg/kg
same,MIC,Bacteroides fragilis 111,1 µg/mL
same,MIC,[11],1 µg/mL
same,MIC,[12],1 µg/mL
same,MIC,[13],6.25 µg/mL
same,inhibition of growth,Treponema hyodysenteriae; 0.5 mcg/ml agar concentration,inhibited growth
same,inhibition of growth,Treponema hyodysenteriae; 5.0 mcg/ml agar concentration,inhibited growth
same,inhibition of growth,Treponema hyodysenteriae; 50 mcg/ml agar concentration,inhibited growth
same,MIC,Eubacterium aerofaciens,1 µg/mL
same,MIC,Mycoplasma hyopneumoniae,≤ 0.15 µg/mL
same,MIC,Mycoplasma hyorhinis,0.39 µg/mL
same,MIC,Mycoplasma gallisepticum,0.78 µg/mL
same,MIC,Mycoplasma synoviae,0.78 µg/mL
same,MIC,[14],1 µg/mL
same,MIC,Clostridium septicum,2 µg/mL
same,MIC,[15],≤ 0.5 µg/mL
same,MIC,[16],≤ 0.5 µg/mL
same,MIC,Fusobacterium symbiosum,2 µg/mL
same,ED50,[17],65 mg/kg
CC[C@]1(C)C[C@@H](OC(=O)CS[C@@H]2OC[C@@H](O)[C@H](O)[C@H]2O)[C@]2(C)[C@H](C)CC[C@]3(CCC(=O)[C@H]32)[C@@H](C)[C@@H]1O [Compound 3],MIC,Clostridium perfringens,2 µg/mL
same,MIC,Actinomyces israelii,0.5 µg/mL
same,ED50,[1],13.2 mg/kg
same,ED50,[2]; infecting challenge 500 × LD50 (ip),7 mg/kg
same,MIC,[3],6.25 µg/mL
same,MIC,Bacteroides corrodens,1 µg/mL
same,Units of Activity,[4],1150 to 1243 µg/mg
same,MIC,Bacteroides vulgatis,1 µg/mL
same,MIC,[5],1 µg/mL
same,Activity (color reaction),Spiroplasma citri; 0.01 ppm,R
same,Activity (color reaction),Spiroplasma citri; 0.05 ppm,R
same,Activity (color reaction),Spiroplasma citri; 0.1 ppm,R
same,Activity (color reaction),Spiroplasma citri; 1.0 ppm,R
same,MIC,Pseudomonas sp. (fish),12.5 µg/mL
same,MIC,[7],0.5 µg/mL
same,ED50,[18],16.3 mg/kg
same,MIC,[8],1 µg/mL
same,MIC,Peptococcus prevoti,≤ 0.125 µg/mL
same,MIC,[9],0.25 µg/mL
same,ED50,[10]; [19],21 mg/kg
same,ED50,[10]; [20],29 mg/kg
same,ED50,"[10]; Staphylococcus aureus, 3055, sc, sc, infecting challenge 400 × LD50 (ip)",1.6 mg/kg
same,MIC,Bacteroides fragilis 111,2 µg/mL
same,MIC,[11],0.5 µg/mL
same,MIC,[12],1 µg/mL
same,MIC,[13],6.25 µg/mL
same,MIC,Eubacterium aerofaciens,0.5 µg/mL
same,MIC,Mycoplasma hyopneumoniae,≤ 0.15 µg/mL
same,MIC,Mycoplasma hyorhinis,0.39 µg/mL
same,MIC,Mycoplasma gallisepticum,0.39 µg/mL
same,MIC,Mycoplasma synoviae,0.39 µg/mL
same,MIC,[14],0.5 µg/mL
same,MIC,Clostridium septicum,1 µg/mL
same,MIC,[15],≤ 0.125 µg/mL
same,MIC,[16],0.5 µg/mL
same,MIC,Fusobacterium symbiosum,1 µg/mL
same,ED50,[17],58.5 mg/kg
